The record followed here is US7829572B2 (Pfizer Inc, priority 2006, dated 2010).

The structures appear in SMILES notation. pIC50: −log10 of the molar value.

The experiment deals with T1, calcium receptor (CasR) (Homo sapiens, UniProt P41180).
T1 construct: expressed in transfected cells; host or cells: HEK 293
T1 sequence (P41180 20-1078): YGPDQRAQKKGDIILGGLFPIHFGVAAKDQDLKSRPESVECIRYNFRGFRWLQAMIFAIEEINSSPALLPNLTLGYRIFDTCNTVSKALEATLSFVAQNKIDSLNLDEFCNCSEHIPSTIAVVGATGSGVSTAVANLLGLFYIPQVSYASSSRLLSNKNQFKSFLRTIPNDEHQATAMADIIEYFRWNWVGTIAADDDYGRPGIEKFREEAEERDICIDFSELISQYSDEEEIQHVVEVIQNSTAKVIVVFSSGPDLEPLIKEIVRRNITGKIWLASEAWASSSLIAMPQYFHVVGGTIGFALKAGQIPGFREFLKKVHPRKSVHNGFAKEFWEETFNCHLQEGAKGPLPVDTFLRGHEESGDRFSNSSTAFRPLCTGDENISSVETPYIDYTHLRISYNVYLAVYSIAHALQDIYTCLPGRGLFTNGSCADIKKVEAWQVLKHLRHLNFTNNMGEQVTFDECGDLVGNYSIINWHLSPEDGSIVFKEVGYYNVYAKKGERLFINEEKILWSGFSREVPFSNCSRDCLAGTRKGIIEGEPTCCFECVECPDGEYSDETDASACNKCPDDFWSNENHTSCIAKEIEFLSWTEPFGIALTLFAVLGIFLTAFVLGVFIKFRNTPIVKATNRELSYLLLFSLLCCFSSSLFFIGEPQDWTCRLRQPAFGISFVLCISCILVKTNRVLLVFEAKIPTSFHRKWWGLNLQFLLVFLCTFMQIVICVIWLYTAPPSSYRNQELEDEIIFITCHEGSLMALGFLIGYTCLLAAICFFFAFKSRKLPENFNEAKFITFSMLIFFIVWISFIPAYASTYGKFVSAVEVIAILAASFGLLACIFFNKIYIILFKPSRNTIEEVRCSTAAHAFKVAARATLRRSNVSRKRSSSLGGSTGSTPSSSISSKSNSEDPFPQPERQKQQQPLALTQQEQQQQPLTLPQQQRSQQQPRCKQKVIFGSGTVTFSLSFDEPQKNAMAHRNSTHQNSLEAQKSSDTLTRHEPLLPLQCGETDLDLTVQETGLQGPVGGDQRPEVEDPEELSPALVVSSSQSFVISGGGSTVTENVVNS
The experiment in a line: FLIPR Assay for Evaluating the Potency and Selectivity of Test Compounds. The experiment is classed as cell-based. Conditions: HEK 293 cells expressing CasR; 30 minutes pre-incubation; stimulation by 1.7 mM Ca2+; read 42 seconds after stimulation. From the text: FLIPR Assay for Evaluating the Potency and Selectivity of Test Compounds
Human kidney cell (HEK 293) expressing the calcium receptor (CasR) are used to detect antagonists of the receptor using Fluorometric imaging plate reader (FLIPR, Molecular Devices, Sunnyvale Calif.). Receptor activation by extracellular calcium results in the release of calcium from intracellular stores into the cytosol. A fluorescent indicator (Fluo-4) is internalized by the cells from growth media and interacts with calcium released into the cytosol to provide a means of quantifying intracellular Ca^2+ levels and receptor agonism/antagonism. Fluorescence intensity is detected by the FLIPR CCD camera and traced as a function of time. Potential antagonists are identified by their ability to decrease this fluorescent response.
Prior to the addition of test compound cells are washed with a 10 mM HEPES buffer solution. The test compound, for example the compound of Example 1, is added at various doses (from 1 µM to 3 nM) and pre-incubated with cells for 30 minutes followed by stimulation of the CasR by the addition of 1.7 mM Ca^2+. IC50 values are based on the ability of the cells to inhibit the Ca^2+ induced increase in intracellular Ca^2+. Fluorescence signal is read 42 seconds after the stimulation of the CasR by the addition of 1.7 mM Ca^2+.
The following table provides FLIPR IC50 data for the specified Examples. The IC50s are reported as micromolar concentration with n being the number of times the particular compound was assayed.

Regarding `CC(=O)Nc1cccnc1-c1nc2ccnc(C(F)(F)F)c2c(=O)n1CCc1ccccc1F` [Example 52, N-(2-(3-(2-fluorophenethyl)-4-oxo-5-(trifluoromethyl)-3,4-dihydropyrido[4,3-d]pyrimidin-2-yl)pyridin-3-yl)acetamide], the pIC50 was 6.64.
Under `C[C@H](Cc1ccccc1)n1c(-c2cscn2)nc2ccnc(C(F)(F)F)c2c1=O` [Example 53, (R)-3-(1-phenylpropan-2-yl)-2-(thiazol-4-yl)-5-(trifluoromethyl)pyrido[4,3-d]pyrimidin-4(3H)-one] stands 6.59.
Turning to `O=c1c2c(C(F)(F)F)nccc2nc(-c2cscn2)n1CCc1ccccc1` [Example 54, 3-phenethyl-2-(thiazol-4-yl)-5-(trifluoromethyl)pyrido[4,3-d]pyrimidin-4(3H)-one], the pIC50 was 6.15.
The value for `COc1ccccc1CCn1c(-c2ccccc2O)nc2ccnc(C(F)(F)F)c2c1=O` [Example 55, 3-(2-methoxyphenethyl)-2-(2-hydroxyphenyl)-5-(trifluoromethyl)pyrido[4,3-d]pyrimidin-4(3H)-one] was 6.14; that for `O=c1c2c(C(F)(F)F)nccc2nc(-c2cscn2)n1CCc1ccccc1F` [Example 56, 3-(2-fluorophenethyl)-2-(thiazol-4-yl)-5-(trifluoromethyl)pyrido[4,3-d]pyrimidin-4(3H)-one] was 5.81.
Under `C[C@H](Cc1ccccc1)n1c(C2CCCC2)nc2ccnc(C(F)(F)F)c2c1=O` [Example 57, (R)-2-cyclopentyl-3-(1-phenylpropan-2-yl)-5-(trifluoromethyl)pyrido[4,3-d]pyrimidin-4(3H)-one] stands 5.78; under `CC(C)c1nc2ccnc(C(F)(F)F)c2c(=O)n1CCc1ccccc1` [Example 58, 2-isopropyl-3-phenethyl-5-(trifluoromethyl)pyrido[4,3-d]pyrimidin-4(3H)-one], 5.33; under `O=c1c2c(C(F)(F)F)nccc2nc(C2CCCC2)n1CCc1ccccc1` [Example 59, 2-cyclopentyl-3-phenethyl-5-(trifluoromethyl)pyrido[4,3-d]pyrimidin-4(3H)-one], 5.11.
Under `COc1ccccc1CCn1c(-c2cscn2)nc2ccnc(C(F)(F)F)c2c1=O` [Example 60, 3-(2-methoxyphenethyl)-2-(thiazol-4-yl)-5-(trifluoromethyl)pyrido[4,3-d]pyrimidin-4(3H)-one] stands 4.63; under `O=c1c2c(C(F)(F)F)nccc2nc(-c2cscn2)n1CCC1CCCCC1` [Example 61, 3-(2-cyclohexylethyl)-2-(thiazol-4-yl)-5-(trifluoromethyl)pyrido[4,3-d]pyrimidin-4(3H)-one], 6.30; under `N#Cc1ccccc1-c1nc2ccnc(C(F)(F)F)c2c(=O)n1CCC1CCCCC1` [Example 62, 2-(3-(2-cyclohexylethyl)-4-oxo-5-(trifluoromethyl)-3,4-dihydropyrido[4,3-d]pyrimidin-2-yl)benzonitrile], 5.33.
On to `Nc1cccnc1-c1nc2ccnc(C(F)(F)F)c2c(=O)n1CCc1ccccc1` [Example 63, 2-(3-aminopyridin-2-yl)-3-phenethyl-5-(trifluoromethyl)pyrido[4,3-d]pyrimidin-4(3H)-one], for which the pIC50 was 6.11.
Under `CS(=O)(=O)Nc1cccnc1-c1nc2ccnc(C(F)(F)F)c2c(=O)n1CCc1ccccc1` [Example 64, N-(2-(4-oxo-3-phenethyl-5-(trifluoromethyl)-3,4-dihydropyrido[4,3-d]pyrimidin-2-yl)pyridin-3-yl)methanesulfonamide] stands 4.21.
The value for `CC(Cc1ccccc1F)n1c(-c2cscn2)nc2ccnc(C(F)(F)F)c2c1=O` (stereo not drawn) [Example 65, 3-(1-(2-fluorophenyl)propan-2-yl)-2-(thiazol-4-yl)-5-(trifluoromethyl)pyrido[4,3-d]pyrimidin-4(3H)-one] was 4.98; that for `CC(C)CCn1c(-c2ncccc2O)nc2ccnc(C(F)(F)F)c2c1=O` [Example 66, 2-(3-hydroxypyridin-2-yl)-3-isopentyl-5-(trifluoromethyl)pyrido[4,3-d]pyrimidin-4(3H)-one] was 4.44.
The value for `O=c1c2c(C(F)(F)F)nccc2nc(-c2ncccc2O)n1CC1CCOCC1` [Example 67, 2-(3-hydroxypyridin-2-yl)-3-((tetrahydro-2H-pyran-4-yl)methyl)-5-(trifluoromethyl)pyrido[4,3-d]pyrimidin-4(3H)-one] was below 6.00; that for `O=c1c2c(C(F)(F)F)nccc2nc(-c2ncccc2O)n1CCC1CCOCC1` [Example 68, 2-(3-hydroxypyridin-2-yl)-3-(2-(tetrahydro-2H-pyran-4-yl)ethyl)-5-(trifluoromethyl)pyrido[4,3-d]pyrimidin-4(3H)-one] was below 6.00; that for `COc1ccc(F)c(CCn2c(-c3ncccc3O)nc3ccnc(C(F)(F)F)c3c2=O)c1` [Example 69, 3-(2-fluoro-5-methoxyphenethyl)-2-(3-hydroxypyridin-2-yl)-5-(trifluoromethyl)pyrido[4,3-d]pyrimidin-4(3H)-one] was 4.17.
Consider `COc1cccc(CCn2c(-c3ncccc3O)nc3ccnc(C(F)(F)F)c3c2=O)c1F` [Example 70, 3-(2-fluoro-3-methoxyphenethyl)-2-(3-hydroxypyridin-2-yl)-5-(trifluoromethyl)pyrido[4,3-d]pyrimidin-4(3H)-one], for which the pIC50 was 4.21.
As to `N#Cc1ccccc1-c1nc2cccc(C(F)(F)F)c2c(=O)n1CCc1ccccc1F` [Example 71, 2-(3-(2-fluorophenethyl)-4-oxo-5-(trifluoromethyl)-3,4-dihydroquinazolin-2-yl)benzonitrile], the pIC50 was 6.38.
The value for `O=C(Nc1cccnc1-c1nc2ccnc(C(F)(F)F)c2c(=O)n1CCc1ccccc1F)C(F)(F)F` [Example 72, N-(2-(3-(2-fluorophenethyl)-4-oxo-5-(trifluoromethyl)-3,4-dihydropyrido[4,3-d]pyrimidin-2-yl)pyridin-3-yl)-2,2,2-trifluoroacetamide] was 6.03; that for `C[C@H](Cc1ccccc1)n1c(-c2ncccc2NC(=O)C(F)(F)F)nc2ccnc(C(F)(F)F)c2c1=O` [Example 73, (R)-2,2,2-trifluoro-N-(2-(4-oxo-3-(1-phenylpropan-2-yl)-5-(trifluoromethyl)-3,4-dihydropyrido[4,3-d]pyrimidin-2-VI)pyridin-3-VI)acetamide] was 6.70.
As to `O=c1c2c(C(F)(F)F)nccc2nc(-c2ncccc2O)n1C1CCCCC1` [Example 74, 3-cyclohexyl-2-(3-hydroxypyridin-2-yl)-5-(trifluoromethyl)pyrido[4,3-d]pyrimidin-4(3H)-one], the pIC50 was 4.32.
Under `O=c1c2c(C(F)(F)F)nccc2nc(-c2ncccc2C(F)(F)F)n1CCc1ccccc1` [Example 76, 3-Phenethyl-5-trifluoromethyl-2-(3-trifluoromethyl-pyridin-2-yl)-3H-pyrido[4,3-d]pyrimidin-4-one] stands 5.20; under `C[C@H](Cc1ccccc1)n1c(-c2ncccc2C(F)(F)F)nc2ccnc(C(F)(F)F)c2c1=O` [Example 77], 6.15; under `Nc1scnc1-c1nc2ccnc(C(F)(F)F)c2c(=O)n1CCc1ccccc1` [Example 78, 2-(5-aminothiazol-4-yl)-3-phenethyl-5-(trifluoromethyl)pyrido[4,3-d]pyrimidin-4(3H)-one], 5.01.
Under `O=c1c2c(C(F)(F)F)nccc2nc(-c2ccccc2C(F)F)n1CCc1ccccc1` [Example 79, 2-(2-(difluoromethyl)phenyl)-3-phenethyl-5-(trifluoromethyl)pyrido[4,3-d]pyrimidin-4(3H)-one] stands 6.41.

One may read the pIC50 as −log10 of the IC50, conventionally taken in molar units.
